Measurements as given in US5420348A, “Urea derivatives and salts thereof” (Yamanouchi Pharmaceutical Co., Ltd., priority 1990, dated 1995).

Columns and labels:
[1] = biological target: acyl-CoA cholesterol acyltransferase (ACAT); assay: Inhibitory action against acyl-CoA cholesterol acyltransferase (ACAT) activity in rabbit liver microsome; type: biochemical; conditions: 36 μM [1-14C]oleoyl CoA, pH 7.4, 37° C., 10 minutes, read-out: ACAT Inhibiting Activity IC50 (50% Inhibition Concentration)
Procedure: i) ACAT enzyme inhibiting activity:
Inhibitory action against acyl-CoA cholesterol acyltransferase (ACAT) activity in rabbit liver microsome
The rabbit liver microsome was prepared as an enzyme fraction according to the method of Heider (J. G. Heider et al., J. of Lipid Res., Vol. 24, 1127-34 (1983)).
To the mixture of 0.154M phosphate buffer solution (pH 7.4), 2 mM dithiothreitol, 36 μM bovine serum albumin and 10-100 μg of microsome fraction was added liposome prepared by the method of Suckling (K. E. Suckling et al., FEBS Letters, Vol. 151, No. 111-116 (1983)) so that the proposition of liposome became 20% v/v. To the mixture was added 2% v/v of each concentration of test compound solution in dimethyl sulfoxide and the mixture was heated at 37° C. for 5 minutes. Then 36 μM oleoyl CoA containing 1^14 C-oleoyl CoA was added and the resultant mixture was heated at 37° C. for 10 minutes. The reaction was stopped by adding chloroform/methanol (=2/1). After stirring, cholesterol oleate extracted into the chloroform layer was separated by thin layer chromatography and the radioactivity was determined as ACAT activity.

serum total cholesterol = assay: Lipid-lowering activity in rats fed a diet containing 1.5% cholesterol and 0.5% bile acid; type: in vivo; conditions: Rattus norvegicus; male Sprague-Dawley rats, 1.5% cholesterol/0.5% bile acid diet for 7 days, oral once a day during last 5 days, blood 2 hours after last administration; read-out: % Reduction in Serum Total Cholesterol ED50
Excerpt: ii) Lipid-lowering activity:
Two hours after the last administration, blood samples were collected under ether anesthesia for determination of serum total cholesterol level and HDL-cholesterol level.

Compound	IC50 [1] [nM]	ED50 (serum total cholesterol) [mg/kg]
Cc1cc(C)c(NC(=O)N(Cc2ccc3c(c2)Cc2ccccc2-3)C2CCCCCC2)c(C)c1 [Example 1, 1-Cycloheptyl-1-[(2-fluorenyl)methyl]-3-(2,4,6-trimethylphenyl)urea]	73	3.8
Cc1cc(C)c(NC(=O)N(Cc2cc3ccccc3c3ccccc23)C2CCCCCC2)c(C)c1 [Example 10, 1-Cycloheptyl-1-[(9-phenanthrenyl)methyl]-3-(2,4,6-trimethylphenyl)urea]	61	1.7
